Article PMC7689791 (Journal of Clinical Pharmacology, 2020)
Several values for one entry are separate records, joined by “and”; a condition that tells them apart may be missing. Equal values may be shown once. Read-outs that look alike come from different tables or passages of the source.

Columns and labels:
CYP3A = conditions: stand-alone DDI studies and PBPK modeling; cited from earlier work
[1] = cited from earlier work
[2] = Model-predicted / simulated lemborexant exposure across covariates; parameters: species or system human
[3] = cited from earlier work; remark: listed apart in the source
[4] = study 201, 15-day treatment, cited from earlier work
[5] = Logistic regression exposure-response analysis of TEAE probability; conditions: for Headache TEAE probability / Influenza TEAE probability / Nasopharyngitis TEAE probability / Somnolence TEAE probability / Upper Respiratory Tract Infection TEAE probability / Urinary Tract Infection TEAE probability: person
[6] = coadministration with famotidine; cited from earlier work
[7] = Observed incidence of treatment-emergent adverse events in clinical studies
[8] = Population PK final model; assay type: in vivo, human
[9] = oral [14C]lemborexant, healthy subjects, ref study E2006-A001-007, NCT02046213
[10] = 5 mg, 5th quantile, Cav,ss 6.30 ng/mL
[11] = 5 mg, 25th quantile, Cav,ss 7.90 ng/mL
[12] = 5 mg, 50th quantile, Cav,ss 10.00 ng/mL
[13] = 5 mg, 75th quantile, Cav,ss 14.00 ng/mL
[14] = 5 mg, 95th quantile, Cav,ss 19.00 ng/mL
[15] = 10 mg, 5th quantile, Cav,ss 12.00 ng/mL
[16] = 10 mg, 25th quantile, Cav,ss 17.00 ng/mL
[17] = 10 mg, 50th quantile, Cav,ss 21.00 ng/mL
[18] = 10 mg, 75th quantile, Cav,ss 27.00 ng/mL
[19] = 10 mg, 95th quantile, Cav,ss 37.00 ng/mL
[20] = studies 202, 303, 304, 5 to 15 mg

## Cc1ncc(OC[C@@]2(c3cccc(F)c3)C[C@H]2C(=O)Nc2ccc(F)cn2)c(C)n1 [Lemborexant]
CYP3A
  Interaction with moderate and strong CYP3A inhibitors: clinically meaningful interaction
[1]
  calculated logP: 3.2
[2]; ALP 150 U/L, relative to population average
  Higher exposure for high ALP: 9%
[2]; BMI 15 kg/m^2, relative to typical subject with normal BMI
  Lower exposure for underweight: 25%
[2]; BMI 32 kg/m^2, relative to typical subject with normal BMI
  Higher exposure for class 1 obesity: 11%
[2]; high ALP
  Exposure elevation in high ALP subjects: 8%
[2]; high BMI
  Exposure elevation in obese subjects: up to 20%
[2]; model prediction
  Higher CL/F for ALP at the upper range of normal over the typical subject: 7%
[2]; model prediction, relative to population average / adult insomnia population
  Higher exposure in the elderly: 26%
[3]; [9]
  Fraction of the dose bioavailable: at least 87%
  Unchanged lemborexant in feces: 13.0%
  Unchanged lemborexant in urine: not detected
[3]; single ascending-dose study, ref study 001, NCT01463098
  Administered dose recovered as unchanged drug in urine: < 1%
[4]; 1-mg group
  Somnolence frequency: 3.1%
[4]; 25-mg group
  Somnolence frequency: 22.0%
[5]; [10]
  Headache TEAE probability: 11.0 (7.8‐14.0)
  Influenza TEAE probability: 3.8 (2.3‐6.2)
  Nasopharyngitis TEAE probability: 10.0 (7.5‐14.0)
  Somnolence TEAE probability: 7.2 (5.3‐9.7)
  Upper Respiratory Tract Infection TEAE probability: 4.7 (2.9‐7.3)
  Urinary Tract Infection TEAE probability: 2.0 (1.2‐3.5)
[5]; [11]
  Headache TEAE probability: 9.8 (7.6‐13.0)
  Influenza TEAE probability: 3.6 (2.3‐5.5)
  Nasopharyngitis TEAE probability: 9.5 (7.3‐12.0)
  Somnolence TEAE probability: 7.4 (5.7‐9.7)
  Upper Respiratory Tract Infection TEAE probability: 4.4 (2.9‐6.4)
  Urinary Tract Infection TEAE probability: 2.1 (1.3‐3.5)
[5]; [12]
  Headache TEAE probability: 9.2 (7.3‐11.0)
  Influenza TEAE probability: 3.4 (2.3‐4.9)
  Nasopharyngitis TEAE probability: 8.9 (7.1‐11.0)
  Somnolence TEAE probability: 7.7 (6.1‐9.7)
  Upper Respiratory Tract Infection TEAE probability: 4.1 (2.9‐5.7)
  Urinary Tract Infection TEAE probability: 2.3 (1.4‐3.5)
[5]; [13]
  Headache TEAE probability: 8.3 (6.8‐10.0)
  Influenza TEAE probability: 3.1 (2.2‐4.3)
  Nasopharyngitis TEAE probability: 8.1 (6.6‐9.8)
  Somnolence TEAE probability: 8.1 (6.6‐9.9)
  Upper Respiratory Tract Infection TEAE probability: 3.6 (2.7‐4.9)
  Urinary Tract Infection TEAE probability: 2.5 (1.7‐3.6)
[5]; [14]
  Headache TEAE probability: 6.8 (5.3‐8.6)
  Influenza TEAE probability: 2.6 (1.8‐3.9)
  Nasopharyngitis TEAE probability: 6.7 (5.2‐8.6)
  Somnolence TEAE probability: 8.9 (7.3‐11.0)
  Upper Respiratory Tract Infection TEAE probability: 3.0 (2.0‐4.3)
  Urinary Tract Infection TEAE probability: 2.9 (2.0‐4.1)
[5]; [15]
  Headache TEAE probability: 9.2 (7.4‐12.0)
  Influenza TEAE probability: 3.4 (2.3‐4.9)
  Nasopharyngitis TEAE probability: 8.9 (7.1‐11.0)
  Somnolence TEAE probability: 7.7 (6.0‐9.7)
  Upper Respiratory Tract Infection TEAE probability: 4.1 (2.9‐5.7)
  Urinary Tract Infection TEAE probability: 2.2 (1.4‐3.5)
[5]; [16]
  Headache TEAE probability: 7.7 (6.3‐9.4)
  Influenza TEAE probability: 2.9 (2.1‐4.1)
  Nasopharyngitis TEAE probability: 7.6 (6.2‐9.3)
  Somnolence TEAE probability: 8.4 (6.9‐10.0)
  Upper Respiratory Tract Infection TEAE probability: 3.4 (2.5‐4.6)
  Urinary Tract Infection TEAE probability: 2.6 (1.8‐3.7)
[5]; [17]
  Headache TEAE probability: 6.8 (5.3‐8.6)
  Influenza TEAE probability: 2.6 (1.8‐3.9)
  Nasopharyngitis TEAE probability: 6.7 (5.2‐8.6)
  Somnolence TEAE probability: 8.9 (7.3‐11.0)
  Upper Respiratory Tract Infection TEAE probability: 3.0 (2.0‐4.3)
  Urinary Tract Infection TEAE probability: 2.9 (2.0‐4.0)
[5]; [18]
  Headache TEAE probability: 5.7 (4.0‐8.1)
  Influenza TEAE probability: 2.3 (1.3‐4.0)
  Nasopharyngitis TEAE probability: 5.8 (4.0‐8.1)
  Somnolence TEAE probability: 9.6 (7.6‐12.0)
  Upper Respiratory Tract Infection TEAE probability: 2.5 (1.5‐4.3)
  Urinary Tract Infection TEAE probability: 3.3 (2.2‐4.9)
[5]; [19]
  Headache TEAE probability: 3.9 (2.0‐7.4)
  Influenza TEAE probability: 1.7 (0.6‐4.7)
  Nasopharyngitis TEAE probability: 4.0 (2.1‐7.7)
  Somnolence TEAE probability: 11.0 (7.5‐17.0)
  Upper Respiratory Tract Infection TEAE probability: 1.7 (0.6‐4.6)
  Urinary Tract Infection TEAE probability: 4.4 (2.2‐8.7)
[5]; with and without adjustment for age
  Cav,ss as linear predictor of the probability of specific TEAEs (somnolence, nasopharyngitis, flu/influenza, urinary tract infection, upper respiratory tract infection, headache): not a clinically meaningful linear predictor
[6]
  Decrease in lemborexant Cmax: 27%
  Delay in the median tmax: 30 min
  Effect on lemborexant AUC0-t and AUC0-inf: no significant effect
[7]; 9-month SUNRISE 2 study
  Somnolence rate, treatment: 11%
[7]; [20]
  Nasopharyngitis frequency, active treatment: 8.6%
  Upper respiratory tract infection frequency, active treatment: 3.2%
  Urinary tract infection frequency, active treatment: 2.5%
[7]; study 202
  Somnolence rate, treatment: 6%
[8]; 5 mg, 5th quantile of Cav,ss
  Cav,ss: 6.30 ng/mL
[8]; 5 mg, 25th quantile of Cav,ss
  Cav,ss: 7.90 ng/mL
[8]; 5 mg, 50th quantile of Cav,ss
  Cav,ss: 10.00 ng/mL
[8]; 5 mg, 75th quantile of Cav,ss
  Cav,ss: 14.00 ng/mL
[8]; 5 mg, 95th quantile of Cav,ss
  Cav,ss: 19.00 ng/mL
[8]; 10 mg, 5th quantile of Cav,ss
  Cav,ss: 12.00 ng/mL
[8]; 10 mg, 25th quantile of Cav,ss
  Cav,ss: 17.00 ng/mL
[8]; 10 mg, 50th quantile of Cav,ss
  Cav,ss: 21.00 ng/mL
[8]; 10 mg, 75th quantile of Cav,ss
  Cav,ss: 27.00 ng/mL
[8]; 10 mg, 95th quantile of Cav,ss
  Cav,ss: 37.00 ng/mL
[8]; bedtime once-daily dosing
  Accumulation ratio: 1.9
[8]; elderly (>65 years old) versus adults, univariate forward addition
  Effect size of age covariate on CL/F: 126%
[8]; elderly (≥65 years)
  Oral clearance lower in the elderly: 26%
[8]; final model estimate
  CL/F, elderly (categorical covariate factor): 0.739
  Interindividual variability CL/F: 48.1 %CV
  Interindividual variability Q3/F: 56.8 %CV
  Interindividual variability Q4/F: 46.5 %CV
  Interindividual variability V2/F: 142 %CV
  Interindividual variability V3/F: 82.0 %CV
  Interindividual variability V4/F: 41.4 %CV
  Q3/F: 32.1 L/h
  Q4/F: 31.0 L/h
  Residual variability, additive (TAD >3 h): 0.0189 ng/mL
  Residual variability, additive (TAD ≤3 h): 2.62 ng/mL
  Residual variability, proportional (TAD > 3 h): 14.3 % CV
  Residual variability, proportional (TAD ≤ 3 h): 32.9 % CV
  V2/F: 9.09 L
  V3/F: 278 L
  V4/F: 783 L
[8]; final model estimate, typical subject
  CL/F: 23 L/h and 22.7 L/h
[8]; final model, bootstrap median
  CL/F: 23.7 L/h
  CL/F, elderly (categorical covariate factor): 0.713
  Interindividual variability CL/F: 46.8 %CV
  Interindividual variability Q3/F: 42.6 %CV
  Interindividual variability Q4/F: 52.0 %CV
  Interindividual variability V2/F: 131 %CV
  Interindividual variability V3/F: 66.1 %CV
  Interindividual variability V4/F: 38.3 %CV
  Q3/F: 33.0 L/h
  Q4/F: 30.1 L/h
  Residual variability, additive (TAD >3 h): 0.0203 ng/mL
  Residual variability, additive (TAD ≤3 h): 2.46 ng/mL
  Residual variability, proportional (TAD > 3 h): 14.3 % CV
  Residual variability, proportional (TAD ≤ 3 h): 33.2 % CV
  V2/F: 11.4 L
  V3/F: 289 L
  V4/F: 779 L
[8]; final model, fixed
  ALAG1: 0.403 h
  D1, capsule: 0.467 h
  D1, nighttime dosing (covariate factor): 2.33
  D1, tablet (covariate factor): 0.254
  F1, food (covariate factor): 1.21
  Interindividual variability D1: 167 %CV
  Interindividual variability F1: 68.1 %CV
  Interindividual variability Ka: 43.8 %CV
  Ka, capsule: 0.532 h⁻¹
  Ka, food (covariate factor): 0.695
  Ka, tablet (covariate factor): 1.12
[8]; from microrate constants
  Contribution of beta half-life to total dispositional AUC: 0.2%
  Contribution of gamma half-life to total dispositional AUC: 0.4%
  Fraction of alpha disposition phase of total disposition AUC: 99.4%
